Measurements as given in patent publication US20260306460A1, “COMPOSITION FOR REMOVING AND INHIBITING SENESCENT CELLS, AND USES THEREOF” (LIFECEUTIX CO., LTD., priority 2023, published 2026).

Columns and labels:
[1] = tested on: naturally aged C57BL6J mice; assay: Skin aging (dermal thickness, COL1A1 and SDF1 mRNA, hair loss) in naturally aged mice, Example 21-10, Table 25; type: in vivo, mouse; details: for Dermal Thickness (μm): mouse, in vivo; for Relative area of hair loss (%) / Col1a1 mRNA (Fold) / SDF1 mRNA (fold): naturally aged mice; for Relative area of hair loss (%): untreated aged = 100; for Col1a1 mRNA (Fold) / SDF1 mRNA (fold): skin, untreated aged = 1
Protocol: (§1) 22-month-old female C57BL6J mice (KRIBB Laboratory Animal Resource Center) were acclimated to the experimental environment for one week, after which the aged mice were randomly assigned to experimental and control groups. Eight-week-old, non-aged mice served as controls. LX-403 was mixed in a 10% ethanol solution of PEG400 and administered orally at a concentration of 25 mg/kg daily for 21 days, or administered to the skin, joints, or eyes at a concentration of 1 μM. LX-1801 was mixed in distilled water with 4% DMSO, 30% PEG300, and 5% Tween80 and administered to the skin, joints, or eyes at a concentration of 0.4 μM daily for 21 days. LX-2001 was mixed in PBS and administered to the skin, joints, or eyes at a concentration of […] daily for 21 days. LX-2002 was mixed in distilled water with 4% DMSO, 30% PEG300, and 5% Tween80 and administered to the skin, joints, or eyes at a concentration of 2 μM daily for 21 days. […] LX-2005 was mixed in distilled water with 4% DMSO, 30% PEG300, and 5% Tween80 and administered to the skin, joints, or eyes at a concentration of 90 μM daily for 21 days. LX-2007 was mixed in distilled water with 4% DMSO, 30% PEG300, and 5% Tween80 and administered to the skin, joints, or eyes at a concentration of 90 μM daily for 21 days. […] LX-3002 was mixed in distilled water with 4% DMSO, 30% PEG300, and 5% Tween80 and administered orally at a concentration of 10 mg/kg daily for 21 days. […] LX-5411 was mixed in 5% PBS and administered orally at a concentration of 10 mg/kg daily for 21 days or administered to the skin, joints, or eyes at a concentration of 3 μM. LX-5701 was mixed in PBS and administered orally at a concentration of 360 mg/kg daily for 21 days. LX-6807 was mixed in saline and administered intraperitoneally at a concentration of 1 mg/kg daily for 21 days. LX-2101 or LX-2102 was mixed in PBS solution with 5% DMSO and administered intraperitoneally at a concentration of 20 mg/kg or 10 mg/kg, respectively, daily for 21 days. The control group received only the solution in the same volume. After the end of drug administration, the methods described in each example below were performed.
Frozen sections of skin tissue were stained with Hematoxylin/Eosin (H/E), and the dermal thickness was observed under an optical microscope. Furthermore, the mRNA levels of collagen (COL1A1), a skin component, and SDF1, which suppresses age-related pigmentation, were measured using qRT-PCR as described in Example 7-2 of WO2023-085787 A1. […] Furthermore, biweekly examinations were performed to assess the onset of hair loss due to aging.

[2] = tested on: HMGN1 secreted from senescent A549 cells; assay: HMGN1 secretion (ELISA) from senescent A549 cancer cells, Example 12; type: cell-based, human; details: senescent untreated = 100%; 30 μM; 90 μM for LX-305, 905, 1302, 1601, 1603, 2003, 2702, 2901, 3106; 270 μM for LX-1103, 2005, 2007;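 also: A549 cells made senescent by doxorubicin exposure, with DMSO-treated cells serving as the non-senescent control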
Protocol: Cells were treated with doxorubicin or control (DMSO) and cultured.

senescent foreskin cells = assay: Survival of senescent human cells treated with supernatant (secreted fluid) from death-induced cells, Example 13; type: cell-based; details: Table 8; supernatant from dying senescent cells treated at 30, 90 or 270 μM (as Example 11); senescent treated cells
[3] = tested on: NaIO3-induced retinal degenerative C57BL6J mice; assay: NaIO3 retinal degeneration in mice (p16 mRNA, outer nuclear layer thickness), Example 29, Table 53; type: in vivo, mouse; details: daily for 21 days; for Outer nuclear layer thickness: untreated 27.4 (±1.3); for p16 mRNA: untreated 100%
Protocol: Then, retinal degenerative diseases were induced for more than 7 days by intravenous administration of 20 mg/kg of NaIO3, an oxidizing agent that induces retinal pigment epithelial cell death and retinal degeneration. Mice with retinal degenerative diseases were randomly assigned to experimental and control groups. […] The control group received only the solution in the same volume. […] In addition, frozen sections of the other eye tissue were stained with H/E (Hematoxylin/Eosin), and the thickness of the outer nuclear layer (ORL) was observed under an optical microscope. […] The mRNA amount after aging induction was calculated as 100% and compared with the mRNA amount of p16 after treatment with the test compound.

[4] = tested on: naturally aged C57BL6J mice; type: in vivo, mouse; details: after 7 days; 6 mm punch dorsal skin wounds; naturally aged mice; untreated aged 3.2 (±0.4)
[5] = tested on: naturally aged C57BL6J mice; assay: Cataract incidence in naturally aged mice, Example 21-15, Table 30; type: in vivo, mouse; details: orally twice a week, 360 mg/kg, until death, untreated aged 83
Protocol: as §1
Cataracts, which occur with age, are a disease that causes visual impairment due to clouding of the lens and are a major cause of blindness. The mice of Example 21-1 were treated with the test compound mixed in PBS orally twice a week at a concentration of 360 mg/kg. Cataract development was assessed biweekly until death.

[6] = tested on: bleomycin-induced scleroderma C57BL6J mice; assay: Bleomycin scleroderma in mice (p16, COL1A1 mRNA, dermal thickness), Example 24-2, Table 48; type: in vivo, mouse; details: daily for 21 days; for p16 mRNA: untreated 100 (±8.8); for Col1a1 mRNA: untreated 100 (±13.2); for Dermal Thickness: untreated 459 (±38.7)
Protocol: Eight-week-old male C57BL6J mice (KRIBB Laboratory Animal Resource Center) were acclimated to the experimental environment for one week. Then, 100 μl of the anticancer drug bleomyxin (1 mg/ml) was administered subcutaneously every other day to induce scleroderma for more than three weeks. Mice with scleroderma were randomly assigned to experimental and control groups. LX-403 was mixed with a 10% ethanol solution of PEG400 and administered orally at a concentration of 25 mg/kg daily for 21 days or administered directly to the skin at a concentration of 1 μM. LX-1801 was mixed with a solution of 4% DMSO, 30% PEG300, and 5% Tween80 in distilled water and administered subcutaneously at a concentration of 0.4 μM daily for 21 days. LX-2001 was mixed in PBS and administered intradermally at a concentration of 2 μM daily for 21 days. LX-2002 was mixed in distilled water with 4% DMSO, 30% PEG300, and 5% Tween80 and administered intradermally at a concentration of 2 μM daily for 21 days. […] LX-2005 was mixed in distilled water with 4% DMSO, 30% PEG300, and 5% Tween80 and administered intradermally at a concentration of 90 μM daily for 21 days. LX-2007 was mixed in distilled water with 4% DMSO, 30% PEG300, and 5% Tween80 and administered intradermally at a concentration of 90 μM daily for 21 days. […] LX-3002 was mixed with distilled water with 4% DMSO, 30% PEG300, 5% tween80 and administered orally at 10 mg/kg daily for 21 days. […] LX-5411 was mixed with 5% PBS and administered orally at 10 mg/kg daily for 21 days or subcutaneously at 3 μM. LX-5701 was mixed with PBS and administered orally at 360 mg/kg daily for 21 days. LX-6807 was mixed in saline and administered intraperitoneally at a concentration of 1 mg/kg daily for 21 days. The control group was administered only the solution in the same volume. After the end of drug administration, mice were sacrificed in the same manner as in Example 7-2 of WO2023-085787 A1, RNA was extracted from skin tissue, and the synthesized cDNA was used to perform and analyze the mRNA amounts of p16 and collagen (COL1A1) by qRT-PCR (quantitative real-time PCR). In addition, to measure the degree of bleomycin-induced skin hardening, skin frozen sections were stained with H/E (Hematoxylin/Eosin), and the thickness of the dermis was observed under an optical microscope.

| SMILES | Dermal Thickness (μm) [1] | Relative area of hair loss (%) [1] | Col1a1 mRNA (Fold) [1] | SDF1 mRNA (fold) [1] | HMGN1 [2] | Survival (senescent foreskin cells) | Outer nuclear layer thickness [3] | p16 mRNA [3] | Wound size (mm) [4] | Cataract incidence (%) [5] | p16 mRNA [6] | Col1a1 mRNA [6] | Dermal Thickness [6] |
| --- | --- | --- | --- | --- | --- | --- | --- | --- | --- | --- | --- | --- | --- |
| O=C(C(C[N+](=O)[O-])=NO)N1CCN(C(c2ccc(Cl)cc2)c2ccc(Cl)cc2)CC1 [LX-403] | 232 (±16.2) μm | 69 (±2.5) % | 2.4 (±0.2) Fold | 1.8 (±0.1) fold | 320% | 45.1 | 40.1 (±1.9) μm | 34 (±2.2) % | 1.9 (±0.2) mm | 57% | 34.7 (±4.1) % | 45.7 (±4.5) % | 356 (±36.3) μm |
| C[C@@H]1CC[C@@]23C[C@H](O)C(=O)[C@@]2(O)[C@]1(C)[C@H](OC(=O)CCl)C[C@@H](C1=CCn2c(=O)n(-c4ccccc4)c(=O)n2C1)[C@@H]3C [LX-1801, (2S,3aS,4S,5R,7R,8S,8aS,11R)-7-(1,3-Dioxo-2-phenyl-2,3,5,8-tetrahydro-1H-[1,2,4]triazolo[1,2-a]pyridazin-6-yl)-2,3a-dihydroxy-4,8,11-trimethyl-3-oxooctahydro-1H-4,8a-propanoazulen-5-yl 2-Chloroacetate] | 222 (±37.4) μm | 82 (±6.6) % | 2.0 (±0.2) Fold | 2.1 (±0.2) fold | 295% | 41.6 | 32.7 (±2.6) μm | 42 (±4.4) % | 2.5 (±0.6) mm | 68% | 35.4 (±5.6) % | 47.8 (±4.7) % | 418 (±42.3) μm |
